Results taken from patent US10508105B2, “Indazole compounds as mGluR4 allosteric potentiators, compositions, and methods of treating neurological dysfunction” (Vanderbilt University, priority 2017, dated 2019).

These compounds were tested against human mGlu4 (Homo sapiens (Human), UniProt Q14833) (assay: mGlu4 PAM assay in human mGlu4/Gqi5 cells with ~EC20 glutamate (Hamamatsu FDSS)). Settings: ~EC20 concentration of glutamate, read-out: mGlu4 PAM EC50.
Assay type: cell-based
Description: The disclosed compounds and compositions can be evaluated for their ability to act as a potentiatior of metabotropic glutamate receptor activity, in particular mGluR4 activity, by any suitable known methodology known in the art. For example, Chinese Hamster Ovary (CHO) cells transfected with human mGluR4 or HEK cells co-transfected with rat mGluR4 and the G-protein regulated Inwardly Rectifying Potassium channel (GIRK) were plated in clear bottom assay plates for assay in a Hamamatsu FDSS Fluorometric Plate Reader. The cells were loaded with either a Ca2+-sensitive fluorescent dye or the thallium responsive dye and the plates were washed and placed into a suitable kinetic plate reader. For human mGluR4 assays, a fluorescence baseline was established for 3-5 seconds, the disclosed compounds were then added to the cells, and the response in cells was measured. Approximately two and a half minutes later, a concentration of mGluR4 orthosteric agonist (e.g. glutamate, L-AP4, or L-SOP) eliciting approximately 20% (EC20) of the maximal agonist response was added to the cells, and the response was measured. Two minutes later, a concentration of mGluR4 agonist (e.g. glutamate, L-AP4, or L-SOP) eliciting 80% (EC80) of the maximal agonist response was added to the cells, and the response was measured. For rat mGluR4/GIRK experiments, a baseline was established for approximately five seconds, disclosed compounds were added, and either an EC20 or EC80 concentration of agonist was added approximately two and one half minutes later.
The above described assay operated in two modes. In the first mode, a range of concentrations of the disclosed compounds are added to cells, followed by a single fixed concentration of agonist. If the compound acts as a potentiatior, an EC50 value for potentiation and a maximum extent of potentiation by the compound at this concentration of agonist is determined by non-linear curve fitting. If the compound acts as an antagonist, an IC50 value is determined by non-linear curve fitting. In the second mode, several fixed concentrations of the disclosed compounds are added to various wells on a plate, followed by a range in concentrations of agonist for each concentration of disclosed compound. The EC50 values for the agonist at each concentration of compound are determined by non-linear curve fitting. A decrease in the EC50 value of the agonist with increasing concentrations of the sample compound (a leftward shift of the agonist concentration-response curve) is an indication of the degree of mGluR4 potentiation at a given concentration of the sample compound. A decrease in the maximal response of the agonist with increasing concentrations of the sample compounds, with or without a rightward shift in agonist potency, is an indication of the degree of antagonism at mGluR4. The second mode also indicates whether the sample compounds also affect the maximum response to mGluR4 to agonists.

human mGlu4, sequence (Q14833 33-912): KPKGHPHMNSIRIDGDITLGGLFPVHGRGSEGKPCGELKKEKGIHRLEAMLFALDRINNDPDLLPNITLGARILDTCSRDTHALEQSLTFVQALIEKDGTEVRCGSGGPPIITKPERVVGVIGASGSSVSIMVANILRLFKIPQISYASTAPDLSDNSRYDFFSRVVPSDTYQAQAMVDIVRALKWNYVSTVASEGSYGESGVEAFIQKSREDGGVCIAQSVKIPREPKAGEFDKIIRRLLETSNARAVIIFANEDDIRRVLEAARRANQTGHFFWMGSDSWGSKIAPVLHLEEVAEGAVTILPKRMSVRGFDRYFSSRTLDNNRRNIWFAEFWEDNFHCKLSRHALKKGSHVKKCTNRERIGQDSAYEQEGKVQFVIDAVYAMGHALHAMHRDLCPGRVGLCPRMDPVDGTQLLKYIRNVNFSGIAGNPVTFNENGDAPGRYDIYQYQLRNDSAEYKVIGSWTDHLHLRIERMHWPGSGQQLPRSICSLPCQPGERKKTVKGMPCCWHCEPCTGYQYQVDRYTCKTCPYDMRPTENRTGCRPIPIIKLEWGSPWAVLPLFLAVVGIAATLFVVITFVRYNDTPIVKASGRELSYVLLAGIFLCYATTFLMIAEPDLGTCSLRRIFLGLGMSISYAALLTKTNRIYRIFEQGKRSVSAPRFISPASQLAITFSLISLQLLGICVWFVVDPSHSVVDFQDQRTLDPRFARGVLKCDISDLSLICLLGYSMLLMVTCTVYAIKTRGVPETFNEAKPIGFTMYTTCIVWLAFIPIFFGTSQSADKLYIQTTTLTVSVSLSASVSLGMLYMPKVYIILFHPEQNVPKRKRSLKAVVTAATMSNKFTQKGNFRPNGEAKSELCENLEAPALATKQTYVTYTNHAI

Structure (SMILES)	EC50 [nM]
Cn1nc(OCC2CC2)c2ccc(Nc3n[nH]c4cccnc34)cc21 [Compound 5]	164
[2H]C([2H])(C)Oc1nn(C)c2cc(Nc3n[nH]c4cccnc34)ccc12 [Compound 7]	356
[2H]C([2H])([2H])Oc1nn(C)c2cc(Nc3n[nH]c4cccnc34)ccc12 [Compound 8]	294
CCCOc1nn(C)c2cc(Nc3n[nH]c4cccnc34)ccc12 [Compound 9]	171
Cn1nc(OCc2ccncc2)c2ccc(Nc3n[nH]c4cccnc34)cc21 [Compound 10]	65.7
Cn1nc(Oc2ccc(C#N)cn2)c2ccc(Nc3n[nH]c4cccnc34)cc21 [Compound 11]	157
Cc1cc(COc2nn(C)c3cc(Nc4n[nH]c5cccnc45)ccc23)no1 [Compound 12]	203
Cn1nc(OCC(F)(F)F)c2ccc(Nc3n[nH]c4cccnc34)cc21 [Compound 13]	175
Cn1nc(OCC2CCCCO2)c2ccc(Nc3n[nH]c4cccnc34)cc21 (centres unmarked) [Compound 14]	85.6
Cn1nc(Oc2ncccc2C#N)c2ccc(Nc3n[nH]c4cccnc34)cc21 [Compound 15]	184
Cn1nc(Oc2cccc(C#N)n2)c2ccc(Nc3n[nH]c4cccnc34)cc21 [Compound 16]	111
Cn1nc(OCc2ccccn2)c2ccc(Nc3n[nH]c4cccnc34)cc21 [Compound 17]	462
Cn1nc(OCCOc2ccc(F)cc2)c2ccc(Nc3n[nH]c4cccnc34)cc21 [Compound 18]	852
Cn1nc(OCCOc2ccccc2F)c2ccc(Nc3n[nH]c4cccnc34)cc21 [Compound 19]	483
Cn1nc(OC2CCOCC2)c2ccc(Nc3n[nH]c4cccnc34)cc21 [Compound 20]	45.4
Cn1nc(OCCN2CCOCC2)c2ccc(Nc3n[nH]c4cccnc34)cc21 [Compound 21]	238
Cn1nc(OC2COC2)c2ccc(Nc3n[nH]c4cccnc34)cc21 [Compound 22]	629
COCCOc1nn(C)c2cc(Nc3n[nH]c4cccnc34)ccc12 [Compound 23]	380
Cn1nc(OCCN2CCOCC2)c2c(Cl)cc(Nc3n[nH]c4cccnc34)cc21 [Compound 24]	322
Cn1nc(Oc2ccc(C#N)cn2)c2c(Cl)cc(Nc3n[nH]c4cccnc34)cc21 [Compound 25]	482
COc1nn(C)c2cc(Nc3n[nH]c4cccnc34)cc(Cl)c12 [Compound 26]	707
Cn1nc(OC2CCOC2)c2ccc(Nc3n[nH]c4cccnc34)cc21 (centres unmarked) [Compound 28]	726

Structure (SMILES)	EC50 [nM]
Cn1nc(OC2CCS(=O)(=O)CC2)c2ccc(Nc3n[nH]c4cccnc34)cc21 [Compound 29]	214
COCCCOc1nn(C)c2cc(Nc3n[nH]c4cccnc34)ccc12 [Compound 30]	172
Cn1nc(OCC2CC2(F)F)c2ccc(Nc3n[nH]c4cccnc34)cc21 (centres unmarked) [Compound 31]	112
Cn1nc(O[C@H]2CCOC2)c2ccc(Nc3n[nH]c4cccnc34)cc21 [Compound 32]	456
Cn1nc(O[C@H]2CCOC2)c2ccc(Nc3n[nH]c4ncccc34)cc21 [Compound 33]	575
COCCOc1nn(C)c2cc(Nc3n[nH]c4ncccc34)ccc12 [Compound 34]	529
Cn1nc(OC2CC3CCC2O3)c2ccc(Nc3n[nH]c4cccnc34)cc21 (centres unmarked) [Compound 37]	306
Cn1nc(OC2CC3CCC2O3)c2ccc(Nc3n[nH]c4ncccc34)cc21 (centres unmarked) [Compound 38]	601
Cn1nc(OC2CCS(=O)(=O)CC2)c2ccc(NC(=O)c3ccccn3)cc21 [Compound 39]	417
Cn1nc(OC2CCS(=O)(=O)CC2)c2ccc(Nc3n[nH]c4ncccc34)cc21 [Compound 48]	335
Cn1nc(OC2CCS(=O)(=O)C2)c2ccc(NC(=O)c3ccccn3)cc21 (centres unmarked) [Compound 53]	272
Cn1nc(OCC2CCOCC2)c2ncc(NC(=O)c3ccccn3)cc21 [Compound 57]	255
Cn1nc(OCC2CCOC2)c2ncc(Nc3n[nH]c4cccnc34)cc21 (centres unmarked) [Compound 60]	293
Cn1nc(OCC2CCOCC2)c2ncc(Nc3n[nH]c4cccnc34)cc21 [Compound 61]	209
Cn1nc(OCC2CCOCC2)c2ncc(Nc3n[nH]c4ncccc34)cc21 [Compound 62]	353
Cn1nc(OC2CCOC(C)(C)C2)c2ccc(Nc3n[nH]c4cccnc34)cc21 (centres unmarked) [Compound 63]	169
Cn1nc(OC2CCOCC2F)c2ccc(Nc3n[nH]c4cccnc34)cc21 (centres unmarked) [Compound 64]	89
CC1CC(Oc2nn(C)c3cc(Nc4n[nH]c5cccnc45)ccc23)CCO1 (centres unmarked) [Compound 65]	134
Cn1nc(OCCN2CCOCC2)c2ccc(Nc3n[nH]c4ncccc34)cc21 [Compound 66]	398
Cn1nc(OC2CCOC(C)(C)C2)c2ccc(NC(=O)c3ccccn3)cc21 (centres unmarked) [Compound 67]	80.2
CC1CC(Oc2nn(C)c3cc(NC(=O)c4ccccn4)ccc23)CCO1 (centres unmarked) [Compound 73]	398
Cn1nc(OCCN2CCOCC2)c2ccc(NC(=O)c3ccccn3)cc21 [Compound 76]	703

Continued, values first:

EC50 [nM]	Structure (SMILES)
96.4	Cn1nc(OCC2COC2)c2ccc(Nc3n[nH]c4cccnc34)cc21 [Compound 27]
361	Cn1nc(OCC2COCCO2)c2ccc(Nc3n[nH]c4cccnc34)cc21 (centres unmarked) [Compound 35]
403	Cn1nc(OC2CCS(=O)(=O)CC2)c2ccc(NC(=O)c3ncccc3O)cc21 [Compound 41]
53	Cn1nc(OCC2CCOC2)c2ccc(NC(=O)c3ncccc3O)cc21 (centres unmarked) [Compound 44]
30.5	Cn1nc(OCC2CCOC2)c2ccc(Nc3n[nH]c4cccnc34)cc21 (centres unmarked) [Compound 49]
135	Cn1nc(OCC2CCOC2)c2ccc(Nc3n[nH]c4ncccc34)cc21 (centres unmarked) [Compound 50]
40.4	Cn1nc(OCC2CCOCC2)c2ccc(Nc3n[nH]c4cccnc34)cc21 [Compound 51]
157	Cn1nc(OCC2CCOCC2)c2ccc(Nc3n[nH]c4ncccc34)cc21 [Compound 52]
117	Cn1nc(OC2CCS(=O)(=O)C2)c2ccc(NC(=O)c3ncccc3N)cc21 (centres unmarked) [Compound 54]
873	Cn1nc(OCC2CCOC2)c2ncc(NC(=O)c3ccccn3)cc21 (centres unmarked) [Compound 55]
86.8	Cn1nc(OCC2CCOC2)c2ncc(NC(=O)c3ncccc3N)cc21 (centres unmarked) [Compound 56]
50.5	Cn1nc(OCC2CCOCC2)c2ncc(NC(=O)c3ncccc3N)cc21 [Compound 58]
599	Cn1nc(OCC2CCOCC2)c2ncc(NC(=O)c3ncccc3O)cc21 [Compound 59]
131	Cn1nc(OC2CCOC(C)(C)C2)c2ccc(NC(=O)c3ncccc3N)cc21 (centres unmarked) [Compound 68]
117	Cn1nc(OC2CCOC(C)(C)C2)c2ccc(NC(=O)c3ncccc3O)cc21 (centres unmarked) [Compound 69]
84.7	Cn1nc(OC2CCOC[C@H]2F)c2ccc(NC(=O)c3ccccn3)cc21 (some centres unmarked) [Compound 70]
125	Cn1nc(OC2CCOCC2F)c2ccc(NC(=O)c3ncccc3N)cc21 (centres unmarked) [Compound 71]
132	Cn1nc(OC2CCOC[C@H]2F)c2ccc(NC(=O)c3ncccc3O)cc21 (some centres unmarked) [Compound 72]
431	CC1CC(Oc2nn(C)c3cc(NC(=O)c4ncccc4N)ccc23)CCO1 (centres unmarked) [Compound 74]
431	CC1CC(Oc2nn(C)c3cc(NC(=O)c4ncccc4O)ccc23)CCO1 (centres unmarked) [Compound 75]
133	Cn1nc(OCCN2CCOCC2)c2ccc(NC(=O)c3ncccc3N)cc21 [Compound 77]
